From ChEMBL document CHEMBL4699479, “Structure-aided optimization of 3-O-β-chacotriosyl epiursolic acid derivatives as novel H5N1 virus entry inhibitors” (Bioorg Med Chem Lett, 2020) come the findings set out here.

Series [1] concerns Influenza A virus. The class given is functional, organism-based. The note with it: A/Duck/Guangdong/212/2004(H5N1), A549.
Series [2] in a line: Cytotoxicity against human A549 cells assessed as reduction in cell viability by MTT assay. The class given is cell-based. For orientation: Tetrazolium assays rely on reduction of a dye to a coloured formazan, in cell work by metabolically active cells.
The subject of series [3] is MDCK. The series is described as follows: (§1) Cytotoxicity against dog MDCK cells assessed as reduction in cell viability. As to conditions: mdck. The class given is cell-based, Canis lupus familiaris.
A short description of series [4]: in vitro. As to conditions: human, A549 cells.
Series [5] is described as follows: as §1. The class given is cell-based, Canis lupus familiaris. The note with it: MDCK cells.
The subject of series [6] is Erythrocyte. Briefly: Inhibition of Hemagglutinin in Influenza A virus (H5N1) assessed as reduction in virus-induced agglutination of chicken erythrocytes by hemagglutination assay. Format: cell-based. The note with it: dose microM 5-160.
Series [7] concerns H5N1 subtype. Briefly: Antiviral activity against Influenza A virus (A/Thailand/Kan353/2004(H5N1)) infected in MDCK cells assessed as inhibition of viral entry. Format: functional, organism-based.
Series [8] concerns Vesicular stomatitis virus. Briefly: Antiviral activity against VSV-G enveloped pseudovirus infected in MDCK cells assessed as inhibition of viral entry at 1 to 100 uM. Format: functional, organism-based. As to conditions: dose microM 1-100.
Series [9] deals with Influenza A virus (A/Thailand/Kan353/2004(H5N1)). Briefly: Inhibition of Influenza A virus (A/Thailand/Kan353/2004(H5N1)) neuraminidase N1 at 5 to 20 microM by fluorescence method. The note with it: dose microM 5-20.
Series [10] can be described thus: (§2) Binding affinity to Influenza A virus (A/Viet Nam/1203/2004(H5N1)) hemagglutin by surface plasmon resonance assay. On the technique in general: In SPR one partner is held on a chip, and binding of the other changes the refractive index at the surface.
In series [11] the test system is Influenza A virus (A/Viet Nam/1203/2004(H5N1)). Described as §2.
Series [12] relates to Influenza A virus. The class given is functional, organism-based. As to conditions: A/Duck/Guangdong/212/2004(H5N1), dose mg/kg 40-160, time 5.0 day.
Series [13] has as its system MDCK. Briefly: Cytotoxicity against dog MDCK cells assessed as reduction in cell viability at 0.78125 to 200 uM. Format: cell-based, Canis lupus familiaris. The note with it: dose 0.78125-200 µM.
The subject of series [14] is Influenza A virus. Format: functional, organism-based. As to conditions: A/Duck/Guangdong/212/2004(H5N1), A549, dose 25.0 µM.
Series [15] relates to Influenza A virus. Format: functional, organism-based. As to conditions: A/Duck/Guangdong/212/2004(H5N1), dose 80.0 mg/kg, time 5.0 day.

Activity calls are given as the source filed them. The calls are words filed in the database; no cut-off is given here.

A word on the IC50: it is the point on the concentration scale where inhibition reaches its midpoint. The term CC50 denotes the concentration that lowers cell viability or growth by half. `COC(=O)[C@]12CC[C@@H](C)[C@H](C)[C@H]1C1=CC[C@@H]3[C@@]4(C)CC[C@@H](O[C@@H]5O[C@H](CO)[C@@H](O[C@@H]6O[C@@H](C)[C@H](O)[C@@H](O)[C@H]6O)[C@H](O)[C@H]5O[C@@H]5O[C@@H](C)[C@H](O)[C@@H](O)[C@H]5O)C(C)(C)[C@@H]4CC[C@@]3(C)[C@]1(C)CC2` displayed an IC50 in series [1] of 16.4 µM. In addition, in [2], the half-maximal cytotoxic concentration (CC50) came out at 363 µM. For the same molecule, the Activity entry in series [3] is “Non-Toxic”. Besides, in series [4], the selectivity ratio worked out at 22.1.

Turning to `C[C@H]1[C@H](C)CC[C@]2(C(=O)N(C)C)CC[C@]3(C)C(=CC[C@@H]4[C@@]5(C)CC[C@H](O[C@@H]6O[C@H](CO)[C@@H](O[C@@H]7O[C@@H](C)[C@H](O)[C@@H](O)[C@H]7O)[C@H](O)[C@H]6O[C@@H]6O[C@@H](C)[C@H](O)[C@@H](O)[C@H]6O)C(C)(C)[C@@H]5CC[C@]43C)[C@H]12`, the CC50 in [5] is 47 µM.

`C[C@H]1[C@H](C)CC[C@]2(C(=O)Nc3ccccc3)CC[C@]3(C)C(=CC[C@@H]4[C@@]5(C)CC[C@@H](O[C@@H]6O[C@H](CO)[C@@H](O[C@@H]7O[C@@H](C)[C@H](O)[C@@H](O)[C@H]7O)[C@H](O)[C@H]6O[C@@H]6O[C@@H](C)[C@H](O)[C@@H](O)[C@H]6O)C(C)(C)[C@@H]5CC[C@]43C)[C@H]12` displayed an IC50 in series [1] of 33.8 µM. For the same molecule, the CC50 in series [2] is > 1000 µM. In addition, the selectivity ratio in series [4] is > 29.6.

`CNC(=O)[C@]12CC[C@@H](C)[C@H](C)[C@H]1C1=CC[C@@H]3[C@@]4(C)CC[C@@H](O[C@@H]5O[C@H](CO)[C@@H](O[C@@H]6O[C@@H](C)[C@H](O)[C@@H](O)[C@H]6O)[C@H](O)[C@H]5O[C@@H]5O[C@@H](C)[C@H](O)[C@@H](O)[C@H]5O)C(C)(C)[C@@H]4CC[C@@]3(C)[C@]1(C)CC2`: in series [1], the IC50 came to 12.2 µM. The CC50 in series [2] is > 1000 µM. In [4], the selectivity ratio was > 81.7.

`C[C@H]1[C@H](C)CC[C@]2(C(=O)NCc3ccccc3)CC[C@]3(C)C(=CC[C@@H]4[C@@]5(C)CC[C@@H](O[C@@H]6O[C@H](CO)[C@@H](O[C@@H]7O[C@@H](C)[C@H](O)[C@@H](O)[C@H]7O)[C@H](O)[C@H]6O[C@@H]6O[C@@H](C)[C@H](O)[C@@H](O)[C@H]6O)C(C)(C)[C@@H]5CC[C@]43C)[C@H]12`: the IC50 in series [1] is > 50 µM.

`C[C@H]1[C@H](C)CC[C@]2(C(=O)O)CC[C@]3(C)C(=CC[C@@H]4[C@@]5(C)CC[C@@H](O[C@@H]6O[C@H](CO)[C@@H](O[C@@H]7O[C@@H](C)[C@H](O)[C@@H](O)[C@H]7O)[C@H](O)[C@H]6O[C@@H]6O[C@@H](C)[C@H](O)[C@@H](O)[C@H]6O)C(C)(C)[C@@H]5CC[C@]43C)[C@H]12`: inhibition in series [1] was half-maximal at 48.7 µM (IC50). For the same molecule, the half-maximal cytotoxic concentration (CC50) in series [2] was found to be 283 µM. In series [4], the selectivity ratio was determined as 5.8.

With `C[C@H]1[C@H](C)CC[C@]2(C(=O)NC3CCCC3)CC[C@]3(C)C(=CC[C@@H]4[C@@]5(C)CC[C@@H](O[C@@H]6O[C@H](CO)[C@@H](O[C@@H]7O[C@@H](C)[C@H](O)[C@@H](O)[C@H]7O)[C@H](O)[C@H]6O[C@@H]6O[C@@H](C)[C@H](O)[C@@H](O)[C@H]6O)C(C)(C)[C@@H]5CC[C@]43C)[C@H]12`, in [1], the IC50 was determined as 18.5 µM. The CC50 in series [2] was > 1000 µM. The selectivity ratio in series [4] is > 54.1.

Broadly, the Kd is the concentration at which binding is half-saturated. Turning to `C[C@H]1[C@H](C)CC[C@]2(C(=O)N(C)C)CC[C@]3(C)C(=CC[C@@H]4[C@@]5(C)CC[C@@H](O[C@@H]6O[C@H](CO)[C@@H](O[C@@H]7O[C@@H](C)[C@H](O)[C@@H](O)[C@H]7O)[C@H](O)[C@H]6O[C@@H]6O[C@@H](C)[C@H](O)[C@@H](O)[C@H]6O)C(C)(C)[C@@H]5CC[C@]43C)[C@H]12`, the inhibition result in series [6] was “Dose-dependent effect”. In addition, the results for the IC50 in [1] and in [7] were 8.42 µM and 6.29 µM, respectively. The CC50 in [2] was > 1000 µM. Further, the outcome in series [8] was inactive. Further, the inhibition result in series [9] was “inactive”. In series [10], this molecule registered a dissociation constant (Kd) of 0.00164 µM. In addition, the Activity entry in [11] was “Dose-dependent effect”; in [12], “Dose-dependent effect”; in series [13], “Non-Toxic”. The result in [14] was Active. The selectivity ratio in series [4] is > 119.

With `NC(=O)c1ncn([C@@H]2O[C@H](CO)[C@@H](O)[C@H]2O)n1` [RIBAVIRIN], the midpoint of inhibition in [1], the IC50, lay at 47.2 µM. In [2], the CC50 was determined as 130 µM. The outcome in series [15] was Active. Further, the selectivity ratio in series [4] was 2.7.

As to `CCOC(=O)[C@]12CC[C@@H](C)[C@H](C)[C@H]1C1=CC[C@@H]3[C@@]4(C)CC[C@@H](O[C@@H]5O[C@H](CO)[C@@H](O[C@@H]6O[C@@H](C)[C@H](O)[C@@H](O)[C@H]6O)[C@H](O)[C@H]5O[C@@H]5O[C@@H](C)[C@H](O)[C@@H](O)[C@H]5O)C(C)(C)[C@@H]4CC[C@@]3(C)[C@]1(C)CC2`, in series [1], 18.1 µM corresponded to half-maximal inhibition (IC50). Moreover, the CC50 in series [2] amounted to 375 µM. Moreover, the selectivity ratio in series [4] worked out at 20.7.

On to `C[C@H]1[C@H](C)CC[C@]2(C(=O)OCc3ccccc3)CC[C@]3(C)C(=CC[C@@H]4[C@@]5(C)CC[C@@H](O[C@@H]6O[C@H](CO)[C@@H](O[C@@H]7O[C@@H](C)[C@H](O)[C@@H](O)[C@H]7O)[C@H](O)[C@H]6O[C@@H]6O[C@@H](C)[C@H](O)[C@@H](O)[C@H]6O)C(C)(C)[C@@H]5CC[C@]43C)[C@H]12`, for which the IC50 in [1] was > 50 µM.

Consider `C[C@H]1[C@H](C)CC[C@]2(C(=O)OC3CCCC3)CC[C@]3(C)C(=CC[C@@H]4[C@@]5(C)CC[C@@H](O[C@@H]6O[C@H](CO)[C@@H](O[C@@H]7O[C@@H](C)[C@H](O)[C@@H](O)[C@H]7O)[C@H](O)[C@H]6O[C@@H]6O[C@@H](C)[C@H](O)[C@@H](O)[C@H]6O)C(C)(C)[C@@H]5CC[C@]43C)[C@H]12`, for which inhibition in series [1] was half-maximal at 40.5 µM (IC50). For the same molecule, the CC50 in series [2] worked out at 524 µM. In addition, in series [4], the selectivity ratio came out at 12.9.

As to `CCCCCOC(=O)[C@]12CC[C@@H](C)[C@H](C)[C@H]1C1=CC[C@@H]3[C@@]4(C)CC[C@@H](O[C@@H]5O[C@H](CO)[C@@H](O[C@@H]6O[C@@H](C)[C@H](O)[C@@H](O)[C@H]6O)[C@H](O)[C@H]5O[C@@H]5O[C@@H](C)[C@H](O)[C@@H](O)[C@H]5O)C(C)(C)[C@@H]4CC[C@@]3(C)[C@]1(C)CC2`, the IC50 in [1] turned out to be 29.3 µM. The CC50 in [2] is 489 µM. In addition, in series [4], the selectivity ratio was found to be 16.7.
